Experimental data as given in patent publication US12208093B2 (THE JOHNS HOPKINS UNIVERSITY, priority 2016, dated 2025).
“Also recorded” adds a separate entry of the source. Structures can show the parent of a compound that is named as a salt. Where two headings read alike, the source gives them in different places.

Legend:
[1] = system: MCMV; assay: MCMV infection model in BALB/c mice; type: in vivo, Murid Herpesvirus (MCMV) in BALB/c mice
Experimental: Control mice received 0.1 ml of saline intraperitoneally. […] Control and infected mice received equivalent volumes of saline. […] Mice were sacrificed at day 14 after infection. Blood samples were collected by cardiac puncture. […] Two million MEFs were seeded into 24 well plates. […] Plaques were counted after three days. […] The gB primers were: F: 5′ […] 3′ (SEQ ID NO:1); R: 5′ […] 3′(SEQ ID NO:2) (43).

[2] = system: pp28-luciferase HCMV Towne; assay: Add on and removal studies; type: cell-based, human cytomegalovirus (HCMV); details: luciferase at 72 hpi
Experimental: Add on and removal studies. […] For time-of-removal studies, the medium containing the compounds was removed at 0, 6, 12, 24, 36 and 48 hpi, cells were washed three times with phosphate-buffered saline (PBS), and drug-free medium was added. Luciferase activity was determined at 72 hpi.

[3] = system: HCMV Towne; assay: HCMV Towne plaque reduction assay in HFFs; type: cell-based, human cytomegalovirus (HCMV)
Excerpt: (§1) Cell culture, virus infection and anti-viral assays.

[4] = system: GCV-resistant pp28-luciferase HCMV (C607Y mutation in UL97); details: nM concentrations
Experimental: Viruses. The pp28-luciferase HCMV Towne strain was constructed as previously described. A GCV-resistant pp28-luciferase HCMV strain, with a C607Y mutation in UL97 was also used. The recombinant viruses express luciferase under the control of the late CMV gene promoter, pp28. Luciferase expression is strongly activated 48-72 hours post infection (hpi). The recombinant viruses provide a highly-sensitive and reproducible reporter system which correlates with the classic plaque reduction assay.
Cell culture, virus infection and anti-viral assays. Human Foreskin Fibroblasts (HFFs) passage 12-16 (ATCC, CRL-2088™) and mouse embryonic fibroblasts (MEFs) passage 9-14 (ATCC, CRL-1658™) were grown in Dulbecco's Modified Eagle Medium (DMEM) containing 10% fetal bovine serum (FBS) (Gibco, Carlsbad, CA) in a 5% CO2 incubator at 37° C. Infection with HCMV or HSV was performed in HFFs, and infection with mouse CMV was performed in MEFs. For HCMV, cells were seeded in either a 96-well plate or 100 mm culture plates (Corning Costar, Sigma Aldrich) at 0.5 or 2 million cells/plate. Following 90 minute adsorption, media was removed and cells were washed with PBS. Media containing 4% FBS and compounds were added to each well. […] Luciferase activity was measured 72 h following second cycle infection.

[5] = human; cited from earlier work
[6] = system: HSV-2 (clinical isolates); assay: HSV-2 plaque assay in HFFs; type: cell-based, herpes simplex virus 2; details: nM concentrations
Excerpt: as §1

[7] = target: RPS14 (Homo sapiens, UniProt P62263); assay: Confocal microscopy of RPS14 localization; type: cell-based; details: 24 hpi; infected cells; emetine 75 nM
Experimental: Confocal microscopy. […] Cells were fixed with 3.7% paraformaldehyde for 20 min at room temperature, permeabilized with ice cold methanol for 10 min at −20° C. and blocked with 5% bovine serum albumin in 0.5% Tween-20 for 20 min at room temperature. Cells were incubated with primary antibodies at 4° C. overnight, washed and incubated with fluorescently labeled secondary antibodies for 2 h at 37° C. Fluorescence microscopy was performed by using a confocal laser scanning microscope (Nikon EZ Cl confocal microscope). All images were captured at 60× magnification and processed under identical conditions with constant parameters (including scan speed and excitation and emission wavelengths) using Nikon EZ Cl software.

[8] = target: T1, RPS14 and MDM2 (Homo sapiens, UniProt P62263+Q00987); assay: Co-immunoprecipitation of RPS14 and MDM2; RPS14 expression and ubiquitination; type: cell-based
T1 construct: endogenous in cells; host or cells: Human foreskin fibroblasts (HFFs, ATCC CRL-2088), infected with HCMV Towne
Excerpt: SDS-polyacrylamide gel electrophoresis and immunoblot analysis. Cell lysates were quantified for protein content using bicinchoninic acid (BCA) protein assay kit (Pierce Chemical, Rockford, IL). Equivalent amount of proteins were used for Western blot analysis as described previously. Protein bands were visualized by chemiluminescence using Western Blotting Luminol Reagent (Santa Cruz Biotechnology, Santa Cruz, CA). The following antibodies were used for detection of HCMV proteins: mouse anti-IE1 and IE2, (MAb810); mouse anti-UL44 (Santa Cruz biotechnology Santa Cruz, CA); mouse monoclonal anti-pp65 (Vector laboratories, Burlingame, CA); mouse monoclonal anti-β-actin antibody (Millipore, Billerica, MA); rabbit polyclonal anti-RPS14 and mouse monoclonal anti-MDM2 (AbCam, Cambridge, UK), mouse monoclonal anti-p53 (Santa Cruz, CA); horseradish peroxidase (HRP)-conjugated goat anti-rabbit IgG (Cell Signaling); and HRP-conjugated sheep anti-mouse IgG, (GE Healthcare, Waukesha, WI). For detection of co-immunoprecipitated proteins, protein A-HRP conjugate (Cell Signaling Technologies, Beverly, MA) was used as secondary antibody to eliminate the interfering IgG bands.
Co-immunoprecipitation (IP) and immunoblotting. Non-infected, infected or emetine-treated HFFs were treated with MG132 (10 μM) for 12 h. […] 1 mg of lysate was precleared with bead slurry for 30 min. The precleared lysates were incubated with anti-MDM2 (2 μg) antibody overnight. The antibody complexes were isolated using protein A/G beads (Santa Cruz), washed three times with 50% IP buffer. The immunoprecipitate—protein A/G beads were boiled in SDS sample buffer, and the supernatant was analyzed on SDS-PAGE gels after immunoblotting as described previously. […] Reverse IPs were performed by pulling down the precleared lysates with either anti-p53 antibody or anti-RPS14 antibody and detected with MDM2. […] In other experiments, transfected or treated HEK293 cell lysates were pulled-down with anti-IE2 antibody and detected with anti-MDM2 antibody and vice-versa for reverse IP.

[9] = system: malaria; details: 17 patients; 40 mg IM x 6 daily doses; cited from earlier work
[10] = in vivo
Experimental: Pharmacokinetics and CMV inhibition in mice. […] The dosing solution was prepared in saline with a dosing volume of 10 mL/kg. Blood and tissue samples including liver, lung and spleen were collected at 0, 0.083, 0.25, 0.5, 0.75, 1, 2, 3, 4, 7, 24, 30, 48, 72 and 96 hr. […] Pharmacokinetic parameters (Cmax, Tmax, AUC and t1/2) were calculated with a non-compartmental approach using the Pharsight WinNonLin software (Ver. 6.4). The experimental procedures were approved by the Animal Care and Use Committee of Division of Veterinary Resources, NIH.

CC[C@H]1CN2CCc3cc(OC)c(OC)cc3[C@@H]2C[C@@H]1C[C@H]1NCCc2cc(OC)c(OC)cc21 [emetine, emetine dihydrochloride hydrate]
MCMV inhibition in mice ([1]; oral every 72 h / three days, low dose 0.1 mg/kg, dihydrochloride hydrate, 0.1 mg/kg): inhibited; also recorded: high efficacy; also recorded: inhibits mouse CMV replication; also recorded: effectively suppressed MCMV
difference in efficacy between 0.1 and 1 mg/kg ([1]; oral, every three days): no significant difference
time of addition after which activity against HCMV replication is lost ([2]; add-on): > 12 h
time compound is required to fully inhibit HCMV ([2]; removal assay): at least 24 h
inhibition of HCMV by plaque reduction assay [3]: further confirmed
reduction in the number and size of plaques ([3]; 2 million cells/plate (p<0.001) as compared to 0.5 million cells/plate, emetine 75 nM): 30 fold
inhibition of GCV-resistant HCMV [4]: inhibited
half-life [5]: 24 to 48 h
inhibition of HSV-2 [6]: inhibited
RPS14 localization [7]: induced RPS14 translocation into the nucleus
interaction between RPS14 and MDM2 ([8]; 24 hpi, contact-inhibited infected cells, not cycling cells, MG132 present): strongly induced
HCMV-induced RPS14 expression ([8]; 72 hpi, contact-inhibited infected cells, emetine 75 nM): reduced
ubiquitinated RPS14 ([8]; 72 hpi, only in contact-inhibited cells, MG132): increased
treatment of malaria [9]: successful treatment
Cmax ([10]; male, BALB/c, mouse, in vivo, 0.1 mg/kg): 1.4 ng/mL
half-life ([10]; male, BALB/c, mouse, in vivo, ip, 0.1 mg/kg, half-life, single intraperitoneal administration 0.1 mg/kg, mice): 32 h
half-life ([10]; male, BALB/c, mouse, in vivo, po, 1 mg/kg, half-life, single oral administration 1 mg/kg, male BALB/c mice): 32 h
half-life ([10]; single oral administration 1 mg/kg, male BALB/c mice, dihydrochloride hydrate, 1 mg/kg): 24 h
